We go through four compounds from PubChem BioAssay (NCI).

Some test systems named below: KM12 colon; CCRF-CEM leukemia; SK-MEL-2 melanoma; MOLT-4 leukemia; UACC-62 melanoma; CAKI-1 renal; OVCAR-8 ovarian; A498 renal; K-562 leukemia; SF-539 CNS.
Assay in all cases: NCI-60 cell line screen, 48 h

Molecules are shown by their SMILES.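 Briefly, cells in 96-well plates were exposed to five compound concentrations for 48 h, and endpoints were estimated by linear interpolation. TGI denotes the concentration required for complete inhibition of growth.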

Regarding `CC(C)Oc1cccc(N2C(CCc3c[nH]c4ccc(Br)cc34)=NS(=O)(=O)c3cnccc32)c1`, the TGI is over 100 µM in the assay with KM12 colon; over 100 µM in the assay with CCRF-CEM leukemia; over 100 µM in the assay with SK-MEL-2 melanoma; 92 µM in the assay on MOLT-4 leukemia; over 100 µM in the assay with UACC-62 melanoma; over 100 µM with CAKI-1 renal. Besides, the TGI in the assay with OVCAR-8 ovarian, with A498 renal, in the assay with K-562 leukemia and with SF-539 CNS was over 100 µM each time.

With `CCOC(=O)C(Cc1ccc(N=NN(C)C)cc1)NC(=O)CC1c2ccccc2-c2ccccc21` (stereo not given), the TGI with KM12 colon, with CCRF-CEM leukemia, in the assay with SK-MEL-2 melanoma, with MOLT-4 leukemia, in the assay on UACC-62 melanoma and with CAKI-1 renal was over 100 µM throughout. Besides, the TGI in the assay with OVCAR-8 ovarian, with A498 renal, in the assay on K-562 leukemia and in the assay with SF-539 CNS was over 100 µM in each case.

Turning to `Cc1ccc(S(=O)(=O)N/N=c2/sc3ccccc3n2C)cc1`, the TGI with KM12 colon, with CCRF-CEM leukemia, with SK-MEL-2 melanoma, in the assay with MOLT-4 leukemia, in the assay with UACC-62 melanoma and in the assay with CAKI-1 renal was over 100 µM throughout. Further, the TGI in the assay on OVCAR-8 ovarian, in the assay with A498 renal, with K-562 leukemia and in the assay on SF-539 CNS was over 100 µM each time.

For the compound `[N-]=[N+]=CC(=O)C1CCN(c2ccccc2)C1=O` (stereo not given), the TGI with KM12 colon, with CCRF-CEM leukemia, in the assay with SK-MEL-2 melanoma, with MOLT-4 leukemia, with UACC-62 melanoma and in the assay with CAKI-1 renal was over 10 µM each time. The TGI with OVCAR-8 ovarian, in the assay with A498 renal, with K-562 leukemia and in the assay with SF-539 CNS was over 10 µM throughout.
